Common to all, as to type: functional
Assay [1] has as its system Klebsiella pneumoniae. Nature of the assay: Antimicrobial activity against Klebsiella pneumoniae ATCC 13883 at 100 ug/ml after 24 hrs by agar well diffusion assay. The conditions noted are these: ATCC 13883, 24 h, read-out: DIZ. On the technique in general: Agar diffusion results depend on both activity and mobility in agar.
The test system of assay [2] is Saccharomyces cerevisiae. The assay can be described thus: Antifungal activity against Saccharomyces cerevisiae by two-fold serial dilution method.
Assay [3] relates to Escherichia coli. Nature of the assay: Antimicrobial activity against Escherichia coli ATCC 25922 after 24 hrs by two-fold serial dilution method. The following applies: ATCC 25922, 24 h.
The test system of assay [4] is Candida albicans. The assay can be described thus: Antifungal activity against Candida albicans NRRL Y-477 at 100 ug/ml after 24 hrs by agar well diffusion assay. The following applies: NRRL Y-477, 24 h, read-out: DIZ.
In assay [5] the test system is Micrococcus luteus. The assay can be described thus: Antimicrobial activity against Sarcina lutea at 100 ug/ml after 24 hrs by agar well diffusion assay. The following applies: read-out: DIZ.
For assay [6], the system named is Saccharomyces cerevisiae. Nature of the assay: Antifungal activity against Saccharomyces cerevisiae at 100 ug/ml after 24 hrs by agar well diffusion assay. The following applies: read-out: DIZ.
Assay [7] concerns Bacillus subtilis. The assay can be described thus: Antimicrobial activity against Bacillus subtilis ATCC 6633 at 100 ug/ml after 24 hrs by agar well diffusion assay. The conditions noted are these: ATCC 6633, 24 h, read-out: DIZ.
Assay [8] relates to Candida albicans. The assay can be described thus: Antifungal activity against Candida albicans NRRL Y-477 by two-fold serial dilution method.
Assay [9] deals with Micrococcus luteus. The assay can be described thus: Antimicrobial activity against Sarcina lutea after 24 hrs by two-fold serial dilution method.
Assay [10] relates to Staphylococcus aureus. Nature of the assay: Antimicrobial activity against Staphylococcus aureus ATCC 29213 after 24 hrs by two-fold serial dilution method. The following applies: ATCC 29213, 24 h.
Assay [11] relates to Klebsiella pneumoniae. The assay can be described thus: Antimicrobial activity against Klebsiella pneumoniae ATCC 13883 after 24 hrs by two-fold serial dilution method. The conditions noted are these: ATCC 13883, 24 h.
In assay [12] the test system is Pseudomonas aeruginosa. Nature of the assay: Antimicrobial activity against Pseudomonas aeruginosa ATCC 27953 after 24 hrs by two-fold serial dilution method. The following applies: ATCC 27953, 24 h.
In assay [13] the test system is Bacillus subtilis. Nature of the assay: Antimicrobial activity against Bacillus subtilis ATCC 6633 after 24 hrs by two-fold serial dilution method. The conditions noted are these: ATCC 6633, 24 h.
For assay [14], the system named is Pseudomonas aeruginosa. Nature of the assay: Antimicrobial activity against Pseudomonas aeruginosa ATCC 27953 at 100 ug/ml after 24 hrs by agar well diffusion assay. The conditions noted are these: ATCC 27953, 24 h, read-out: DIZ.
In assay [15] the test system is Staphylococcus aureus. The assay can be described thus: Antimicrobial activity against Staphylococcus aureus ATCC 29213 at 100 ug/ml after 24 hrs by agar well diffusion assay. The following applies: ATCC 29213, 24 h, read-out: DIZ.
The test system of assay [16] is Escherichia coli. Nature of the assay: Antimicrobial activity against Escherichia coli ATCC 25922 at 100 ug/ml after 24 hrs by agar well diffusion assay. The conditions noted are these: ATCC 25922, 24 h, read-out: DIZ.
The test system of assay [17] is Priestia megaterium. Nature of the assay: Antimicrobial activity against Bacillus megaterium ATCC 9885 after 24 hrs by two-fold serial dilution method. The following applies: ATCC 9885, 24 h.
Assay [18] has as its system Priestia megaterium. The assay can be described thus: Antimicrobial activity against Bacillus megaterium ATCC 9885 at 100 ug/ml after 24 hrs by agar well diffusion assay. The conditions noted are these: ATCC 9885, 24 h, read-out: DIZ.

Converted amounts (≈) assume the structure as drawn.

One may read the MIC as the lowest concentration found to suppress growth. Higher therefore signals a need for much substance. For the molecule `Cc1ccc(-n2nnc(C(=O)/C=C/c3ccc(C#N)cc3)c2C)cc1`, the zone of inhibition at 100 µg/mL came to 24 mm in the assay with Klebsiella pneumoniae [1]; 24 mm with Candida albicans [4]; 24 mm in the assay with Micrococcus luteus [5]; 30 mm with Saccharomyces cerevisiae [6]; 28 mm in the assay on Bacillus subtilis [7]; 26 mm in the assay on Pseudomonas aeruginosa [14]. In addition, the zone of inhibition at 100 µg/mL in the assay with Staphylococcus aureus [15] was 23 mm; in the assay on Escherichia coli [16], 16 mm. For the same molecule, the MIC amounted to 8.25 µg/mL (≈ 25.1 µM) with Saccharomyces cerevisiae [2]; 132 µg/mL (≈ 402 µM) with Escherichia coli [3]; 16.5 µg/mL (≈ 50.2 µM) against Candida albicans [8]; 16.5 µg/mL (≈ 50.2 µM) against Micrococcus luteus [9]; 16.5 µg/mL (≈ 50.2 µM) against Staphylococcus aureus [10]; 16.5 µg/mL (≈ 50.2 µM) with Klebsiella pneumoniae [11]. Besides, the minimal inhibitory concentration (MIC) in the assay on Pseudomonas aeruginosa [12] and with Bacillus subtilis [13] was 8.25 µg/mL (≈ 25.1 µM) throughout.

Consider `Cc1ccc(-n2nnc(C3=NN(C(=S)Nc4ccccc4)C(c4ccc(C#N)cc4)C3)c2C)cc1` (stereo unspecified), for which the minimal inhibitory concentration (MIC) against Saccharomyces cerevisiae [2] is 8.25 µg/mL (≈ 17.3 µM); against Candida albicans [8], 33 µg/mL (≈ 69.1 µM); against Micrococcus luteus [9], 33 µg/mL (≈ 69.1 µM); with Staphylococcus aureus [10], 33 µg/mL (≈ 69.1 µM); against Pseudomonas aeruginosa [12], 66 µg/mL (≈ 138 µM). In addition, the zone of inhibition at 100 µg/mL in the assay on Candida albicans [4] was found to be 22 mm; in the assay with Micrococcus luteus [5], 24 mm; in the assay on Saccharomyces cerevisiae [6], 24 mm; in the assay on Pseudomonas aeruginosa [14], 22 mm; in the assay with Staphylococcus aureus [15], 20 mm.

Take `Cc1ccc(-n2nnc(C3=NN(C(=S)NC(=O)c4ccccc4)C(c4ccc(N5CCCCC5)cc4)C3)c2C)cc1` (stereo unspecified): the MIC against Saccharomyces cerevisiae [2] came to 8.25 µg/mL (≈ 14.6 µM); in the assay with Escherichia coli [3], 8.25 µg/mL (≈ 14.6 µM); in the assay with Priestia megaterium [17], 8.25 µg/mL (≈ 14.6 µM); in the assay on Candida albicans [8], 8.25 µg/mL (≈ 14.6 µM); in the assay on Micrococcus luteus [9], 66 µg/mL (≈ 117 µM); in the assay on Staphylococcus aureus [10] it was 132 µg/mL (≈ 234 µM). Moreover, the MIC in the assay with Pseudomonas aeruginosa [12] and against Bacillus subtilis [13] was 33 µg/mL (≈ 58.5 µM) throughout. For the same molecule, the zone of inhibition at 100 µg/mL came out at 30 mm in the assay with Candida albicans [4]; 23 mm in the assay on Micrococcus luteus [5]; 30 mm in the assay on Saccharomyces cerevisiae [6]; 24 mm in the assay with Bacillus subtilis [7]; 30 mm in the assay on Priestia megaterium [18]; 26 mm with Pseudomonas aeruginosa [14]. Moreover, the values for the zone of inhibition at 100 µg/mL in the assay on Staphylococcus aureus [15] and in the assay with Escherichia coli [16] were 16 mm and 32 mm, respectively.

For `Cc1ccc(-n2nnc(C(=O)/C=C/c3ccc(F)cc3)c2C)cc1`, the zone of inhibition at 100 µg/mL in the assay with Klebsiella pneumoniae [1] stood at 16 mm; with Candida albicans [4], 22 mm; in the assay on Micrococcus luteus [5] it was 16 mm; in the assay with Saccharomyces cerevisiae [6], 23 mm; in the assay with Bacillus subtilis [7] it was 26 mm; in the assay on Priestia megaterium [18], 24 mm. Also, the figures for the zone of inhibition at 100 µg/mL in the assay on Pseudomonas aeruginosa [14] and with Staphylococcus aureus [15] were 16 mm and 20 mm, respectively. The MIC amounted to 16.5 µg/mL (≈ 51.3 µM) in the assay on Saccharomyces cerevisiae [2]; 16.5 µg/mL (≈ 51.3 µM) with Priestia megaterium [17]; 16.5 µg/mL (≈ 51.3 µM) in the assay on Candida albicans [8]; 132 µg/mL (≈ 411 µM) against Micrococcus luteus [9]; 16.5 µg/mL (≈ 51.3 µM) with Staphylococcus aureus [10]; 132 µg/mL (≈ 411 µM) against Klebsiella pneumoniae [11]. Further, the MIC against Pseudomonas aeruginosa [12] came to 132 µg/mL (≈ 411 µM); in the assay with Bacillus subtilis [13], 16.5 µg/mL (≈ 51.3 µM).

In the case of `Cc1ccc(-n2nnc(C3=NN(C(N)=S)C(c4ccc(F)cc4)C3)c2C)cc1` (stereo unspecified), the MIC in the assay with Saccharomyces cerevisiae [2] is 8.25 µg/mL (≈ 20.9 µM); in the assay on Escherichia coli [3] it was 16.5 µg/mL (≈ 41.8 µM); with Priestia megaterium [17], 132 µg/mL (≈ 335 µM); in the assay on Candida albicans [8], 16.5 µg/mL (≈ 41.8 µM); against Micrococcus luteus [9], 132 µg/mL (≈ 335 µM); in the assay with Pseudomonas aeruginosa [12], 16.5 µg/mL (≈ 41.8 µM). Besides, the zone of inhibition at 100 µg/mL in the assay with Candida albicans [4] came to 26 mm; in the assay with Micrococcus luteus [5], 16 mm; in the assay with Saccharomyces cerevisiae [6], 30 mm; in the assay on Priestia megaterium [18], 18 mm; in the assay on Pseudomonas aeruginosa [14] it was 26 mm; in the assay on Escherichia coli [16], 22 mm.

As to `Cc1ccc(-n2nnc(C3=NNC(c4ccccc4)C3)c2C)cc1` (stereo unspecified), the minimum inhibitory concentration (MIC) turned out to be 8.25 µg/mL (≈ 26 µM) with Saccharomyces cerevisiae [2]; 132 µg/mL (≈ 416 µM) against Escherichia coli [3]; 132 µg/mL (≈ 416 µM) in the assay with Priestia megaterium [17]; 8.25 µg/mL (≈ 26 µM) with Candida albicans [8]; 16.5 µg/mL (≈ 52 µM) in the assay with Micrococcus luteus [9]; 8.25 µg/mL (≈ 26 µM) in the assay with Staphylococcus aureus [10]. Moreover, the minimum inhibitory concentration (MIC) in the assay on Pseudomonas aeruginosa [12] and against Bacillus subtilis [13] was 8.25 µg/mL (≈ 26 µM) in each case. For the same molecule, the zone of inhibition at 100 µg/mL worked out at 28 mm in the assay with Candida albicans [4]; 30 mm in the assay with Micrococcus luteus [5]; 28 mm in the assay on Saccharomyces cerevisiae [6]; 32 mm in the assay with Bacillus subtilis [7]; 16 mm in the assay with Priestia megaterium [18]; 28 mm in the assay with Pseudomonas aeruginosa [14]. The zone of inhibition at 100 µg/mL was 34 mm in the assay with Staphylococcus aureus [15] and 16 mm in the assay with Escherichia coli [16].

Values taken from ChEMBL document CHEMBL2021863, “Design and synthesis of new 4-pyrazolin-3-yl-1,2,3-triazoles and 1,2,3-triazol-4-yl-pyrazolin-1-ylthiazoles as potential antimicrobial agents” (2012).
